Test system: Acinetobacter baumannii strains
Experiment: Antibiotic susceptibility test (CLSI disk diffusion test method, read per CLSI 2016); for antibiotic susceptibility S/I/R: key: ‘S’ means susceptible; ‘I’ means intermediate; ‘R’ means resistant; for antibiotic susceptibility class: key: ‘S’ means susceptible; ‘I’ means intermediate; ‘R’ means resistant; for susceptibility category (S/I/R): key: ‘S’ means susceptible; ‘I’ means intermediate; ‘R’ means resistant
Type: cell-based
Design: antibiotic susceptibility test value / susceptibility test value (number given before S/I/R) / antibiotic susceptibility value: unit not given here

ampicillin-sulbactam
antibiotic susceptibility class (host strain YMC14/01/C29): R | antibiotic susceptibility test value (host strain YMC14/01/C29): 32 | antibiotic susceptibility class (host strain YMC14/01/IP122): R | antibiotic susceptibility test value (host strain YMC14/01/IP122): 32 | antibiotic susceptibility class (host strain YMC14/01/L8): R | antibiotic susceptibility test value (host strain YMC14/01/L8): 32 | antibiotic susceptibility class (host strain YMC14/01/P31): R | antibiotic susceptibility test value (host strain YMC14/01/P31): 32 | antibiotic susceptibility class (host strain YMC14/01/P117): R | antibiotic susceptibility test value (host strain YMC14/01/P117): 32 | antibiotic susceptibility class (host strain YMC14/01/P224): I | antibiotic susceptibility test value (host strain YMC14/01/P224): 16 | antibiotic susceptibility class (host strain YMC14/01/P727): R | antibiotic susceptibility test value (host strain YMC14/01/P727): 32 | antibiotic susceptibility class (host strain YMC14/01/P728): I | antibiotic susceptibility test value (host strain YMC14/01/P728): 16 | antibiotic susceptibility class (host strain YMC14/01/R130): I | antibiotic susceptibility test value (host strain YMC14/01/R130): 16 | antibiotic susceptibility class (host strain YMC14/01/R160): R | antibiotic susceptibility test value (host strain YMC14/01/R160): 32 | antibiotic susceptibility class (host strain YMC14/01/R198): R | antibiotic susceptibility test value (host strain YMC14/01/R198): 32 | antibiotic susceptibility class (host strain YMC14/01/R257): R | antibiotic susceptibility test value (host strain YMC14/01/R257): 32 | antibiotic susceptibility class (host strain YMC14/01/R270): R | antibiotic susceptibility test value (host strain YMC14/01/R270): 32 | antibiotic susceptibility class (host strain YMC14/01/R324): S | antibiotic susceptibility test value (host strain YMC14/01/R324): 8 | antibiotic susceptibility class (host strain YMC14/01/R443): R | antibiotic susceptibility test value (host strain YMC14/01/R443): 32 | antibiotic susceptibility class (host strain YMC14/01/R451): R | antibiotic susceptibility test value (host strain YMC14/01/R451): 32 | antibiotic susceptibility class (host strain YMC14/01/R560): R | antibiotic susceptibility test value (host strain YMC14/01/R560): 32 | antibiotic susceptibility class (host strain YMC14/01/R617): R | antibiotic susceptibility test value (host strain YMC14/01/R617): 32 | antibiotic susceptibility class (host strain YMC14/01/R671): R | antibiotic susceptibility test value (host strain YMC14/01/R671): 32 | antibiotic susceptibility class (host strain YMC14/01/R732): R | antibiotic susceptibility test value (host strain YMC14/01/R732): 32 | antibiotic susceptibility class (host strain YMC14/01/R767): I | antibiotic susceptibility test value (host strain YMC14/01/R767): 16 | antibiotic susceptibility class (host strain YMC14/01/R904): R | antibiotic susceptibility test value (host strain YMC14/01/R904): 32 | antibiotic susceptibility class (host strain YMC14/01/R905): R | antibiotic susceptibility test value (host strain YMC14/01/R905): 32 | antibiotic susceptibility class (host strain YMC14/01/R921): I | antibiotic susceptibility test value (host strain YMC14/01/R921): 16 | antibiotic susceptibility class (host strain YMC14/01/R941): R | antibiotic susceptibility test value (host strain YMC14/01/R941): 32 | antibiotic susceptibility class (host strain YMC14/01/R958): I | antibiotic susceptibility test value (host strain YMC14/01/R958): 16 | antibiotic susceptibility class (host strain YMC14/01/R1006): I | antibiotic susceptibility test value (host strain YMC14/01/R1006): 16 | antibiotic susceptibility class (host strain YMC14/01/R1199): I | antibiotic susceptibility test value (host strain YMC14/01/R1199): 16 | antibiotic susceptibility class (host strain YMC14/01/R1659): I | antibiotic susceptibility test value (host strain YMC14/01/R1659): 16 | antibiotic susceptibility class (host strain YMC14/01/R1722): I | antibiotic susceptibility test value (host strain YMC14/01/R1722): 16 | antibiotic susceptibility class (host strain YMC14/01/R1752): I | antibiotic susceptibility test value (host strain YMC14/01/R1752): 16 | antibiotic susceptibility class (host strain YMC14/01/R2429): I | antibiotic susceptibility test value (host strain YMC14/01/R2429): 16 | antibiotic susceptibility class (host strain YMC14/01/R2572): I | antibiotic susceptibility test value (host strain YMC14/01/R2572): 16 | antibiotic susceptibility class (host strain YMC14/01/R2855): I | antibiotic susceptibility test value (host strain YMC14/01/R2855): 16 | antibiotic susceptibility class (host strain YMC14/01/R2945): S | antibiotic susceptibility test value (host strain YMC14/01/R2945): 4 | antibiotic susceptibility class (host strain YMC14/01/R3007): I | antibiotic susceptibility test value (host strain YMC14/01/R3007): 16 | antibiotic susceptibility class (host strain YMC14/01/R3129): R | antibiotic susceptibility test value (host strain YMC14/01/R3129): 32 | antibiotic susceptibility class (host strain YMC14/01/R3317): I | antibiotic susceptibility test value (host strain YMC14/01/R3317): 16 | antibiotic susceptibility class (host strain YMC14/01/R3474): R | antibiotic susceptibility test value (host strain YMC14/01/R3474): 32 | antibiotic susceptibility class (host strain YMC14/01/R3574): I | antibiotic susceptibility test value (host strain YMC14/01/R3574): 16 | antibiotic susceptibility class (host strain YMC14/01/U313): S | antibiotic susceptibility test value (host strain YMC14/01/U313): 2 | antibiotic susceptibility class (host strain YMC14/01/U318): R | antibiotic susceptibility test value (host strain YMC14/01/U318): 32 | antibiotic susceptibility class (host strain YMC14/02/L18): I | antibiotic susceptibility test value (host strain YMC14/02/L18): 16 | antibiotic susceptibility class (host strain YMC14/02/P47): R | antibiotic susceptibility test value (host strain YMC14/02/P47): 32 | antibiotic susceptibility class (host strain YMC14/02/R1860): I | antibiotic susceptibility test value (host strain YMC14/02/R1860): 16 | antibiotic susceptibility class (host strain YMC14/02/R2417): I | antibiotic susceptibility test value (host strain YMC14/02/R2417): 16 | antibiotic susceptibility class (host strain YMC14/02/R2599): R | antibiotic susceptibility test value (host strain YMC14/02/R2599): 32 | antibiotic susceptibility class (host strain YMC14/02/R2668): S | antibiotic susceptibility test value (host strain YMC14/02/R2668): 8 | antibiotic susceptibility class (host strain YMC14/02/R2758): S | antibiotic susceptibility test value (host strain YMC14/02/R2758): 8 | antibiotic susceptibility class (host strain YMC14/02/R2781): R | antibiotic susceptibility test value (host strain YMC14/02/R2781): 32 | antibiotic susceptibility class (host strain YMC14/02/R3106): S | antibiotic susceptibility test value (host strain YMC14/02/R3106): 8 | antibiotic susceptibility class (host strain YMC14/02/R3419): I | antibiotic susceptibility test value (host strain YMC14/02/R3419): 16 | antibiotic susceptibility class (host strain YMC14/02/U1607): I | antibiotic susceptibility test value (host strain YMC14/02/U1607): 16 | antibiotic susceptibility class (host strain YMC14/03/L9): I | antibiotic susceptibility test value (host strain YMC14/03/L9): 16 | antibiotic susceptibility class (host strain YMC14/03/P471): S | antibiotic susceptibility test value (host strain YMC14/03/P471): 8 | antibiotic susceptibility class (host strain YMC14/03/R122): R | antibiotic susceptibility test value (host strain YMC14/03/R122): 32 | antibiotic susceptibility class (host strain YMC14/03/R217): I | antibiotic susceptibility test value (host strain YMC14/03/R217): 16 | antibiotic susceptibility class (host strain YMC14/03/R380): S | antibiotic susceptibility test value (host strain YMC14/03/R380): 8 | antibiotic susceptibility class (host strain YMC14/03/R618): S | antibiotic susceptibility test value (host strain YMC14/03/R618): 8 | antibiotic susceptibility class (host strain YMC14/03/R2144): I | antibiotic susceptibility test value (host strain YMC14/03/R2144): 16 | antibiotic susceptibility class (host strain YMC14/03/U4616): I | antibiotic susceptibility test value (host strain YMC14/03/U4616): 16 | antibiotic susceptibility class (host strain YMC14/04/R1078): R | antibiotic susceptibility test value (host strain YMC14/04/R1078): 32 | antibiotic susceptibility class (host strain YMC14/04/R1080): S | antibiotic susceptibility test value (host strain YMC14/04/R1080): 4 | antibiotic susceptibility S/I/R (host strain YMC14/06/R2359): S | antibiotic susceptibility value (host strain YMC14/06/R2359): 8 | susceptibility category (S/I/R) (host strain YMC14/06/R2359): S | susceptibility test value (number given before S/I/R) (host strain YMC14/06/R2359): 8 | antibiotic susceptibility value (host strain YMC14/08/R1169): 16 | susceptibility category (S/I/R) (host strain YMC14/08/R1169): I | susceptibility test value (number given before S/I/R) (host strain YMC14/08/R1169): 16 | antibiotic susceptibility S/I/R (host strain YMC14/08/T90): S | antibiotic susceptibility value (host strain YMC14/08/T90): 8 | susceptibility category (S/I/R) (host strain YMC14/08/T90): S | susceptibility test value (number given before S/I/R) (host strain YMC14/08/T90): 8 | antibiotic susceptibility S/I/R (host strain YMC15/02/R436): R | antibiotic susceptibility value (host strain YMC15/02/R436): 32 | susceptibility category (S/I/R) (host strain YMC15/02/R436): R | susceptibility test value (number given before S/I/R) (host strain YMC15/02/R436): 32 | antibiotic susceptibility value (host strain YMC15/02/T28): 16 | susceptibility category (S/I/R) (host strain YMC15/02/T28): I | susceptibility test value (number given before S/I/R) (host strain YMC15/02/T28): 16 | antibiotic susceptibility value (host strain YMC15/03/R1604): 16 | susceptibility category (S/I/R) (host strain YMC15/03/R1604): I | susceptibility test value (number given before S/I/R) (host strain YMC15/03/R1604): 16 | antibiotic susceptibility value (host strain YMC15/09/R1869): 16 | susceptibility category (S/I/R) (host strain YMC15/09/R1869): I | susceptibility test value (number given before S/I/R) (host strain YMC15/09/R1869): 16 | antibiotic susceptibility S/I/R (host strain YMC16/01/P11): R | antibiotic susceptibility value (host strain YMC16/01/P11): 32 | susceptibility category (S/I/R) (host strain YMC16/01/P11): R | susceptibility test value (number given before S/I/R) (host strain YMC16/01/P11): 32 | antibiotic susceptibility S/I/R (host strain YMC16/01/R123): R

— patent publication US20240000872A1, “NOVEL BACTERIOPHAGE THAT LYSES ACINETOBACTER GENUS BACTERIA HAVING RESISTANCE TO ANTIBIOTICS” (priority 2020, published 2024)
